Source: US20250222120A1, “SYNTHESIS OF NOVEL SMALL MOLECULE CARM1 DEGRADERS, COMPOUNDS FORMED THEREBY, AND PHARMACEUTICAL COMPOSITIONS CONTAINING THEM” (Wisconsin Alumni Research Foundation, priority 2024, published 2025)

Legend:
BAF155 me2a = BAF155 me2a level in BT474 cells, western blot; assay type: cell-based; conditions: 0.5 μM, after 48 h
Excerpt: FIGS. 7A-7F. […] Cell lysates were collected and CARM1, methyl-BAF155, total BAF155, methyl-PABP1, and total PABP1 levels were detected by Western blot. […] Cell lysates were collected and CARM1, methyl-BAF155, total BAF155 levels were detected by Western blot. […] Cell proliferation rate normalized to day 0 was plotted. […] Migrated cells were stained with 1% crystal violet and the percentage of migrated cells were plotted. Data mean±s.d. ***. P≤0.001.
(§1) Western Blot Assay. Cells were harvested and washed with Dulbecco's phosphate-buffered saline (PBS), then lysed with 1×RIPA lysis buffer (50 mM Tris pH 7.5, 150 mM NaCl, 1% NP-40, 0.5% sodium deoxycholate, and 0.1% sodium dodecyl sulfate) supplemented with 1 mM phenylmethylsulfonyl fluoride, 10 μg/mL aprotinin, 1 μM leupeptin, and 10 μg/mL pepstatin on ice for 20 min. The supernatant was collected after spinning down at 15000 RPM at 4 degrees Celsius for 10 min. The concentration of whole lysates was quantified using a Bradford assay. 50-75 μg of cell lysates was boiled in 4× Laemmli Loading Dye and boiled at 100 degrees Celsius for 10 min. 25 μg were run in 8% SDS-PAGE gels and transferred to nitrocellulose membranes. Blots were blocked in 5% skim milk in PBST [PBS and 0.1% Tween 20] for 45 min, then incubated with primary antibodies at 4 degrees Celsius overnight. […]

CARM1 = molecular target: T1, CARM1 (Homo sapiens, UniProt Q86X55); test: CARM1 degradation by western blot in MCF10A cells; assay type: cell-based; design: endogenous in cells; conditions: normal human mammary epithelial cell model
T1 sequence (Q86X55 1-608): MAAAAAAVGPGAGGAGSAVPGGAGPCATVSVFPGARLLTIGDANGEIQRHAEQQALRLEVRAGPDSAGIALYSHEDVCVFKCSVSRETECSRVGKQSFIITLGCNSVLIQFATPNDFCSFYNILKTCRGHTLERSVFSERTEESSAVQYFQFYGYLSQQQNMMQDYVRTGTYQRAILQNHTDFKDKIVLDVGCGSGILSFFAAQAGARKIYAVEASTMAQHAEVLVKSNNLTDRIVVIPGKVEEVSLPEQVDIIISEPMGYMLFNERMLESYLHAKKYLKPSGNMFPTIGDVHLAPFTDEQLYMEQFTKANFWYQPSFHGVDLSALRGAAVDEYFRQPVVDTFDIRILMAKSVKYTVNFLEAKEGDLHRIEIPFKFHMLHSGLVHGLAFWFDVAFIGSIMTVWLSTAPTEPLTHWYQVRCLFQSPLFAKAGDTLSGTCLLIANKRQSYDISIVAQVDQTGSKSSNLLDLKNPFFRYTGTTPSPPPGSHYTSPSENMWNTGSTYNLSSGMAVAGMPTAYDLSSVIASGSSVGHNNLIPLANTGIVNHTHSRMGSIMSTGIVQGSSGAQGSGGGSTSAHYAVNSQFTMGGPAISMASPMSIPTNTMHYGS
Procedure: FIG. 5. […] Cell lysates were collected and the CARM1 levels were detected by western blots.
as §1, with “overnight. Blots were washed in PBST for 30 min, then incubated with horseradish peroxidase-linked secondary antibodies (Jackson ImmunoResearch) for 1 hr. Afterwards, blots were washed in PBST for 15-30 min, then treated with chemiluminescent ECL reagent and imaged with the ChemiDoc Imaging System (Bio-Rad) or Azure 600 (Azure Biosystems).” for “overnight.”

With `CNCCN1CCC(c2cc(CN(C)C(=O)c3cccc(Oc4ccc(OCC(=O)N5CCC(CN6CCC(CN7CCN(CC(=O)N[C@H](C(=O)N8C[C@H](O)C[C@H]8C(=O)N[C@@H](C)c8ccc(-c9scnc9C)cc8)C(C)(C)C)CC7)CC6)CC5)cc4)c3)ccn2)CC1` [Compound 3b, (2S,4R)-1-((S)-3,3-dimethyl-2-(2-(4-((1-((1-(2-(4-(3-(methyl((2-(1-(2-(methylamino)ethyl)piperidin-4-yl)pyridin-4-yl)methyl)carbamoyl)phenoxy)phenoxy)acetyl)piperidin-4-yl)methyl)piperidin-4-yl)methyl)piperazin-1-yl)acetamido)butanoyl)-4-hydroxy-N—((S)-1-(4-(4-methylthiazol-5-yl)phenyl)ethyl)pyrrolidine-2-carboxamide] the “BAF155 me2a level” value (BAF155 me2a) was “decrease of BAF155 me2a level was observed” and the CARM1 degradation (CARM1) was “high potency for CARM1 degradation”.
